Assay results as given in patent publication US12433861B2, “Compositions and methods for treating reperfusion injury or hemorrhage after recanalization therapy” (GNT Pharma Co., Ltd., priority 2020, dated 2025).
“Also recorded” adds a separate entry of the source.

Key:
[1] = system: healthy volunteers; details: human, in vivo
From the text: NMDA receptor antagonists were reported to produce serious side effects in healthy humans.

[2] = system: ischemic stroke patients; details: human, in vivo, 5 days
Protocol: NMDA receptor antagonists can cause adverse events in ischemic stroke patients.
(§1) The ENIS trial was to examine efficacy as well as safety of the intravenous infusions of nelonemdazK for acute ischemic stroke patients (35-80 years old) receiving at least one kind of thrombolytic drugs including rtPA or urokinase within 8 hours of onset. A total of 238 patients were enrolled for the ENIS trial and allocated randomly in a double-blinded manner to one of 4 groups for the intravenous infusions of test drugs as follows: (Group A) placebo [0.9% normal saline], (Group B) 2,750 mg nelonemdazK for 5 days [500 mg for 1st infusion followed by 2nd-10th infusions approximately at 12 h intervals (250 mg for each infusion)], (Group C) 5,250 mg nelonemdazK for 5 days [750 mg for 1st infusion followed by 2nd-10th infusions approximately at 12 h intervals (500 mg for each)], and (Group D) 6,000 mg nelonemdazK for 5 days [1500 mg for 1st infusion followed by 2nd-10th infusions approximately at 12 h intervals (500 mg for each)]. Acute ischemic stroke patients due to occlusion in internal carotid artery system within 8 hours of onset were enrolled. Patients with The National Institutes of Health Stroke Scale (NIHSS; range 0-42, with higher scores indicating greater stroke severity) scores of 4 to 22 and limb weakness including motor arm or motor leg score≥2 of NIHSS were included. All the patients received at least one kind of thrombolytic therapy before treatment of any study drug.

[3] = system: mice treated with rt-PA after embolic stroke; assay: Embolic stroke in mice treated with rt-PA: hemorrhage and brain injury at 24 h; assay type: in vivo; details: 10 mg/kg rt-PA plus nelonemdazK IV at 4.5 hours after embolic stroke, analyzed at 24 hours
Protocol: Embolic stroke was induced by injection of blood clot into the right internal carotid artery of mice. Animals received intravenous administration of saline, 10 mg/kg rt-PA, or 10 mg/kg rt-PA plus nelonemdazK through femoral vein at 4.5 hours after embolic stroke. rt-PA was dissolved in water and injected over 20 min. NelonemdazK was dissolved in saline and injected over 5 min immediately after rt-PA infusion. Hemorrhage and brain injury were analyzed 24 hours after embolic stroke.

[4] = system: normal adult rats; assay: rt-PA-induced hemorrhagic transformation model (intracortical rt-PA) in normal adult rats: Evans blue extravasation and infarct volume; assay type: in vivo, rat; details: intracortical 0.66 mg/kg rt-PA
Protocol: Male Sprague-Dawley rats (340-380 g) were anesthetized with chloral hydrate (400 mg/kg, IP). The animals received intracortical injection of rt-PA (0.66 mg/kg; total […]) coordinated with 2.6 mm posterior, 5.4 mm lateral, and 3.8 mm from bregma at a flow rate of 0.5 μL/min using a infusion pump and Hamilton syringe. After the end of infusion, the syringe was removed from the cortex and nelonemdazK (30 mg/kg) was administrated through femoral vein for 5 min (3 mg/mL; 10 mL/kg). Six hours later, the rats were anesthetized and intravenously administrated with 4% Evans blue solution. Twenty minutes later, the rats were perfused transcardially first with saline and next with 4% paraformaldehyde. The brain was removed immediately and placed in the fixative for 15 min and scanned for evaluation of extravasation area of Evans blue to indirectly measure rt-PA-induced hemorrhagic transformation which occurs as a result of the breakdown of the blood-brain barrier (Jiang et al., 2018). To evaluate brain damage volume, the brain tissues were stored in 4% paraformaldehyde for 3 days and then processed overnight for paraffin embedding and cresyl violet staining. The extravasation area was measured by TINA imaging system (KAIST, Korea).
Animals received the intracortical injection of 0.66 mg/kg rt-PA that was followed by subsequent IV administration of vehicle or 30 mg/kg nelonemdazK 5 min later. Hemorrhagic transformation was investigated by analyzing extravasation of Evans blue dye at 6 h after rt-PA. (Upper panel) Compared to the sham control group, administration of rt-PA produced hemorrhagic transformation evident by extravasation of Evans blue, which was prevented by subsequent treatment with nelonemdazK.
Animals received sham operation or the intracortical injection of 0.66 mg/kg rt-PA, alone or with the subsequent intravenous administration of vehicle or 30 mg/kg nelonemdazK. Animals were sacrificed 6 h later and infarct volume was analyzed after staining brain sections with cresyl violet. (Upper panel) Photographs of brain sections stained with cresyl violet. Note brain lesion following the intracortical injections of rt-PA that was prevented by the administration of nelonemdazK. (Lower panel) Quantitation of infarct volume (Mean±S.E.M., n=3 for sham and 6 for rt-PA-treated groups) by summation of lesion areas in brain sections.

[5] = system: acute ischemic stroke patients; assay: ENIS phase II trial: acute ischemic stroke patients receiving a thrombolytic drug; assay type: in vivo, human; details: for good recovery ratio (patients with NIHSS score of 0-1 or decrease of NIHSS score≥4): 14 days; for ratio of mRS 0 (no symptoms at all): 6,000 mg
Protocol: as §1
The beneficial effects of nelonemdazK were further observed by analyzing “the ratio of patients with NIHSS score of 0-1 or decrease of NIHSS score≥4 (=the good recovery ratio)” at 14 days after drug treatment. […] This implies that the beneficial effects of nelonemdazK are better for moderate to severe ([…]) ischemic stroke patients than mild (NIHSS score≤5) patients.

[6] = system: adult rats; details: rat, in vivo, iv, 200 mg/kg

## O=C([O-])c1cc(NCc2c(F)c(F)c(C(F)(F)F)c(F)c2F)ccc1O.[K+] [nelonemdazK, 2-Hydroxy-5-(2,3,5,6-tetrafluoro-4-trifluoromethylbenzylamino)benzoic acid potassium salt]
[1]
  Number of subjects showing abnormal behavior: Agitation: 0
  Number of subjects showing abnormal behavior: Catatonia: 0
  Number of subjects showing abnormal behavior: Confusion: 0
  Number of subjects showing abnormal behavior: Hallucination: 0
  Number of subjects showing abnormal behavior: Paranoia: 0
[2]
  % of subjects showing abnormal behavior: Agitation: 2%
  % of subjects showing abnormal behavior: Confusion: 0 (0%)
  % of subjects showing abnormal behavior: Delirium: 0 (0%)
  % of subjects showing abnormal behavior: Hallucination: 0 (0%)
  % of subjects showing abnormal behavior: Paranoia: 0 (0%)
  % of subjects showing abnormal behavior: Stupor: 1 (1%)
  Number of subjects showing abnormal behavior: Agitation: 4
  Number of subjects showing abnormal behavior: Confusion: 0 (0%)
  Number of subjects showing abnormal behavior: Delirium: 0 (0%)
  Number of subjects showing abnormal behavior: Hallucination: 0 (0%)
  Number of subjects showing abnormal behavior: Paranoia: 0 (0%)
  Number of subjects showing abnormal behavior: Stupor: 1 (1%)
[3]
  levels of hemoglobin in the ischemic brain region: significantly reduced
[3]; potassium salt, 10 mg/kg
  hemorrhage / hemorrhagic transformation in the ischemic brain region: significantly reduced; also recorded: prevents hemorrhagic transformation
[4]; 30 mg/kg IV 5 min later, 6 h after rt-PA
  hemorrhagic transformation evident by extravasation of Evans blue: prevented
[4]; 30 mg/kg IV, 6 h
  brain lesion (cresyl violet): prevented
[4]; 30 mg/kg IV, 6 h, vs vehicle, p<0.05
  volume of Evans blue extravasation: significantly reduced
[4]; 30 mg/kg IV, 6 h after rt-PA, vs vehicle
  infarct volume: significantly reduced
[5]; 6,000 mg for 5 days, 14, 30, and 90 days, baseline NIHSS 6-24, vs placebo, potassium salt
  percentage of mRS 0-2 (functional independence): increases
[5]; 6,000 mg (N=9), baseline NIHSS 9-24 (placebo 20%, p=0.022)
  good recovery ratio (patients with NIHSS score of 0-1 or decrease of NIHSS score≥4): 50%
[5]; 6,000 mg (N=36), baseline NIHSS 6-24 (placebo 25.53%, p=0.106)
  good recovery ratio (patients with NIHSS score of 0-1 or decrease of NIHSS score≥4): 41.67%
[5]; at 14 days, baseline NIHSS 6-24 (placebo 12%)
  ratio of mRS 0 (no symptoms at all): 25%
[5]; at 30 days, baseline NIHSS 6-24 (placebo 16%)
  ratio of mRS 0 (no symptoms at all): 34%
[5]; at 90 days, baseline NIHSS 6-24 (placebo 26%)
  ratio of mRS 0 (no symptoms at all): 45%
[6]
  neuronal injury: not observed
